Assay results from paper PMC4728423, “Natural and synthetic flavonoid modulation of TRPC5 channels” (British Journal of Pharmacology, 2016).
pIC50: −log10 of the molar value.

How the values were obtained:
human TRPC5 [1] = target: T1, human TRPC5 (Homo sapiens, UniProt Q9UL62); assay: Gd3+-evoked Ca2+ entry in TRPC5-expressing (Tet+) HEK 293 cells; assay type: cell-based
T1 construct: expressed in transfected cells
T1 sequence (Q9UL62 1-973): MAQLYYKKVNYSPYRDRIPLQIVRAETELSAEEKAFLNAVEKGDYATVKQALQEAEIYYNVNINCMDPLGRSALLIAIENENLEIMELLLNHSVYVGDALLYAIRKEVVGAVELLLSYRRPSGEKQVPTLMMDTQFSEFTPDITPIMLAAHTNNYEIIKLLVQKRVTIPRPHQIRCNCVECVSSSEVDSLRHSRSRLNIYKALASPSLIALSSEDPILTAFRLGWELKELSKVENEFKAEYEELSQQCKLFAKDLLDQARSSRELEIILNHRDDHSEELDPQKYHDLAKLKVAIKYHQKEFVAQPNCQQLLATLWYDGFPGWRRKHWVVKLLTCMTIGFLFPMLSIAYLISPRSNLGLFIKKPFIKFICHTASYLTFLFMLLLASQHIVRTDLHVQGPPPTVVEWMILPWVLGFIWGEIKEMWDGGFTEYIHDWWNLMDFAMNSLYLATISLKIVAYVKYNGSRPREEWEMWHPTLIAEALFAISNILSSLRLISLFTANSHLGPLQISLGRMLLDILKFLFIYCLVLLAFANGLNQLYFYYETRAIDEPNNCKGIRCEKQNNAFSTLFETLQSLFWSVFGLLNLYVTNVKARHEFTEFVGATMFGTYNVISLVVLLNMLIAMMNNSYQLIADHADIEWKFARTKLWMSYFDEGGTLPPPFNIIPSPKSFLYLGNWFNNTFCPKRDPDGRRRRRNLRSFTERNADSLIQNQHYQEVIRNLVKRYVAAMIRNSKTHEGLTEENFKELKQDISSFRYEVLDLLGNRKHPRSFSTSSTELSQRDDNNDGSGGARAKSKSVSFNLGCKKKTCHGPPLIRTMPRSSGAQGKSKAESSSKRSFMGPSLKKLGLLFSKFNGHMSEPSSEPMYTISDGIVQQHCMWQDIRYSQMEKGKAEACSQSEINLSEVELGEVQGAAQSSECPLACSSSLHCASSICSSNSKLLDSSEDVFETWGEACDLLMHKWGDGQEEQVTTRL

human TRPC5 [2] = target: T1, human TRPC5; assay: Outside-out patch recordings from TRPC5 Tet+ cells; assay type: cell-based; conditions: outside-out patch, (-)-Englerin A-activated TRPC5
[3] = target: T2, TRPC1-TRPC5 heteromeric channels (Homo sapiens, UniProt P48995+Q9UL62); assay: Whole-cell recordings of TRPC1-TRPC5 heteromeric channels stimulated by (-)-Englerin A; assay type: cell-based; conditions: 5 μM compound, 100 nM (-)-Englerin A
T2 construct: expressed in transfected cells; host or cells: HEK 293-MSR, transient, Lipofectamine 2000

TRPC4 = target: T3, TRPC4 (Homo sapiens, UniProt Q9UBN4); assay: Outside-out patch recordings from TRPC4 Tet+ cells stimulated by (-)-Englerin A; assay type: cell-based; conditions: 5 μM compound, 100 nM (-)-Englerin A
T3 construct: expressed in transfected cells
T3 sequence (Q9UBN4 1-893 isoform Q9UBN4-2): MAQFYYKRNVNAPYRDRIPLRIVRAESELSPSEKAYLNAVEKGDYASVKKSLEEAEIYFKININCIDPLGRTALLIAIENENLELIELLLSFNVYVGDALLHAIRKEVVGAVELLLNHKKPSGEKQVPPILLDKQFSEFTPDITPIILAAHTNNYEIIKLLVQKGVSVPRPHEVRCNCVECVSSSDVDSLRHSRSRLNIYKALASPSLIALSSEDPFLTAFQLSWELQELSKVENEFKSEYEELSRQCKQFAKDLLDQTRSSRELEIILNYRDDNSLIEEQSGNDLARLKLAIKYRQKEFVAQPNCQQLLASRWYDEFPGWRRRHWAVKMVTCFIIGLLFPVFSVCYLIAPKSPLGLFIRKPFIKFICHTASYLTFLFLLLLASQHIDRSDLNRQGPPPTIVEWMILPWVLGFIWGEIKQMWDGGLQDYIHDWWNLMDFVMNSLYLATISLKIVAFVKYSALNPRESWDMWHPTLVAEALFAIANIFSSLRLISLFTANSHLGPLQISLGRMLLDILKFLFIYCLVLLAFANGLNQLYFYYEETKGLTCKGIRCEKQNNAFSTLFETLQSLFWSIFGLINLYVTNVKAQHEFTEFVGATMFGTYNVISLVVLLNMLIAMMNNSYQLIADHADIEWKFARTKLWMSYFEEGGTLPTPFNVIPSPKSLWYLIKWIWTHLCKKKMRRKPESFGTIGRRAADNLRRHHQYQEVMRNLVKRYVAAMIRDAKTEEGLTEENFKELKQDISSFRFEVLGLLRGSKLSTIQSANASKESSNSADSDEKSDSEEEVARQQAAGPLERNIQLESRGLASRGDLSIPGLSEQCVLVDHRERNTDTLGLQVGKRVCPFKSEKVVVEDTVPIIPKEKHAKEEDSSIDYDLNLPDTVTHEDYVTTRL

TRPC3 channels = target: T4, TRPC3 channels (Homo sapiens, UniProt Q13507); assay: OAG-evoked Ca2+ entry in cells overexpressing TRPC3; assay type: cell-based; conditions: 10 μM compound, 50 μM OAG, fura-2
T4 construct: expressed in transfected cells
T4 sequence (Q13507 74-921 limits assumed): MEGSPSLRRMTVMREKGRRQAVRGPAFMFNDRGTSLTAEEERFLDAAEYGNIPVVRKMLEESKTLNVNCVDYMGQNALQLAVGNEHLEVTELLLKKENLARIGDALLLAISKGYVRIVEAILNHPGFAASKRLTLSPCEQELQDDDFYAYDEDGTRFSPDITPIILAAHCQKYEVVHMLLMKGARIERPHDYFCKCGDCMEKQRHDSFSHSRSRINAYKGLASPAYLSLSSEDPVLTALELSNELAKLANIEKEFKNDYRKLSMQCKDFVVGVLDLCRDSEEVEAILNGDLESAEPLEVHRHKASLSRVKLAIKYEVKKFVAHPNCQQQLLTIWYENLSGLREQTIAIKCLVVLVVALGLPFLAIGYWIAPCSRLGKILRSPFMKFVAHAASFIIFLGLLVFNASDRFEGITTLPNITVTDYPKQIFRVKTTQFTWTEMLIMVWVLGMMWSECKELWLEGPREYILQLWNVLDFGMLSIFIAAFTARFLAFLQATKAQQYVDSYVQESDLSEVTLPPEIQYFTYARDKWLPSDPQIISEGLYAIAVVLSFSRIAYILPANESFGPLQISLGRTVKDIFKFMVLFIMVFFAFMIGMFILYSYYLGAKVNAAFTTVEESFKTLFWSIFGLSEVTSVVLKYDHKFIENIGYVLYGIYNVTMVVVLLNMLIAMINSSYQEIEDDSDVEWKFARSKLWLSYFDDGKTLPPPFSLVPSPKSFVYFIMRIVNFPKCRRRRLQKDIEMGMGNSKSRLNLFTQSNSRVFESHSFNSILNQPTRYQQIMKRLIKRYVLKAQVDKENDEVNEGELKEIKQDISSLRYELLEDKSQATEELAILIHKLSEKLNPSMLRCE

TRPV4 channels [4] = target: T5, TRPV4 channels (Homo sapiens, UniProt Q9HBA0); assay: 4alphaPDD-evoked Ca2+ entry in CHO K1 cells expressing TRPV4; assay type: cell-based; conditions: 10 μM compound, 1 μM 4αPDD, fluo-4
T5 construct: expressed in transfected cells

TRPM2 channels = target: T6, TRPM2 channels (Homo sapiens, UniProt O94759); assay: H2O2-evoked Ca2+ entry in cells overexpressing TRPM2; assay type: cell-based; conditions: 10 μM compound, 1 mM H2O2, fura-2
T6 construct: expressed in transfected cells

[5] = tested on: endogenous Ca2+ release signal; assay: Endogenous Ca2+ release in non-induced (Tet-) TRPC5 HEK cells; assay type: cell-based, human; conditions: 10 μM compound, no extracellular Ca2+
human TRPC5 [6] = target: T1, human TRPC5; assay: S1P- or LPC-evoked Ca2+ entry in TRPC5 (Tet+) HEK 293 cells; assay type: cell-based; conditions: 10 μM compound, fura-2
[7] = tested on: endogenous Ca2+ entry mechanism; assay: Ca2+ responses in control non-induced (Tet-) HEK cells with extracellular Ca2+; assay type: cell-based, human; conditions: 10 μM compound
human TRPC5 [8] = target: T1, human TRPC5; assay: Whole-cell patch clamp of TRPC5-expressing (Tet+) HEK 293 cells; assay type: cell-based; conditions: 10 μM compound
[9] = tested on: GABA-evoked ionic currents; parameters: method as in Goutman et al., 2003; conditions: ref Goutman et al., 2003; cited from earlier work
TRPV4 channels [10] = tested on: TRPV4 channels; parameters: method as in Ma et al., 2012; conditions: ref Ma et al., 2012; cited from earlier work
TRPC5 = tested on: TRPC5; parameters: method as in Wong et al., 2010; conditions: ref Wong et al., 2010; cited from earlier work
3T3-L1 cells = conditions: ref Harmon and Harp, 2001; cited from earlier work

T5 sequence (Q9HBA0 whole entry): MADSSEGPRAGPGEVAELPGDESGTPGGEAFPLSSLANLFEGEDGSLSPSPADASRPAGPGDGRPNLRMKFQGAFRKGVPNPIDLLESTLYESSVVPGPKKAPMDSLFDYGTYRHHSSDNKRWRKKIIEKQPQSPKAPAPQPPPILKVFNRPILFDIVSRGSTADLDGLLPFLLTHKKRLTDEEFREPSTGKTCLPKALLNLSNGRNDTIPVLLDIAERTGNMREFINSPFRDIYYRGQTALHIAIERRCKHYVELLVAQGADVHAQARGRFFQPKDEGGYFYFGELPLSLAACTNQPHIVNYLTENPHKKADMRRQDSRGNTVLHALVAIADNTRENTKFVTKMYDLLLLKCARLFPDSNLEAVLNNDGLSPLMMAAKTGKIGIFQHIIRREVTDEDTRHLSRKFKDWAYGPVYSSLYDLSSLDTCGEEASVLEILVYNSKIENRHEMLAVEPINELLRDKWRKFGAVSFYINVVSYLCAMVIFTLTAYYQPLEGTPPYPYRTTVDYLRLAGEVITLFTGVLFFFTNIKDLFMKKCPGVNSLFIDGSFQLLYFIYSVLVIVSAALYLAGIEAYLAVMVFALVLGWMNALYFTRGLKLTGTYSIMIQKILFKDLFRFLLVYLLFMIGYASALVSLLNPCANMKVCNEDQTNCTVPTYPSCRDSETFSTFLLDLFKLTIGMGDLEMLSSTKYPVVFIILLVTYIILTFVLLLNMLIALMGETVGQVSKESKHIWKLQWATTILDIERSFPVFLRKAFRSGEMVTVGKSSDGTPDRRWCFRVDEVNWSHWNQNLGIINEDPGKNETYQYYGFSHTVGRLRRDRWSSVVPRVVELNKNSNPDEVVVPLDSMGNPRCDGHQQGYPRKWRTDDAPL
T2 sequence (P48995 whole entry, one chain of several): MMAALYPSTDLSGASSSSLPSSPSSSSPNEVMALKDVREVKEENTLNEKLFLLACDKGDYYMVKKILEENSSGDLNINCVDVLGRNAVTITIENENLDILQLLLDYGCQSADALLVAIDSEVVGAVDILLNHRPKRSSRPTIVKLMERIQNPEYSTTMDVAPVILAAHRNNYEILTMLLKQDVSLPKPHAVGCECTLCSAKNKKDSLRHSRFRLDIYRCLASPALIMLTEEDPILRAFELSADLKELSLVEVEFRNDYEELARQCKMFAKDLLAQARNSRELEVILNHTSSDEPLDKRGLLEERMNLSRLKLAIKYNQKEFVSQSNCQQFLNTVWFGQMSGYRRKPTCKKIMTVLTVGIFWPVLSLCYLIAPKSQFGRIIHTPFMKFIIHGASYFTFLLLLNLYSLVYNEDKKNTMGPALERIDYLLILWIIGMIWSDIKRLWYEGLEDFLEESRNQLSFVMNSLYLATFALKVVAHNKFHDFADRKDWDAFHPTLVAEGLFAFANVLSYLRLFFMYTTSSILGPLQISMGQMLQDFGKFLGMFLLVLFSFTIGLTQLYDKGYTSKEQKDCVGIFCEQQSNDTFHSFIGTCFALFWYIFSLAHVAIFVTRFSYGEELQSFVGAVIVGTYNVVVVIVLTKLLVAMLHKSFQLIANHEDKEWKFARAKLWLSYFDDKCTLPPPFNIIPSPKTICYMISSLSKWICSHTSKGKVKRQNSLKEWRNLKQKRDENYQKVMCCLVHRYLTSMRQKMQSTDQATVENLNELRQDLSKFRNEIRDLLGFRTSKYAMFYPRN
T6 sequence (O94759 whole entry): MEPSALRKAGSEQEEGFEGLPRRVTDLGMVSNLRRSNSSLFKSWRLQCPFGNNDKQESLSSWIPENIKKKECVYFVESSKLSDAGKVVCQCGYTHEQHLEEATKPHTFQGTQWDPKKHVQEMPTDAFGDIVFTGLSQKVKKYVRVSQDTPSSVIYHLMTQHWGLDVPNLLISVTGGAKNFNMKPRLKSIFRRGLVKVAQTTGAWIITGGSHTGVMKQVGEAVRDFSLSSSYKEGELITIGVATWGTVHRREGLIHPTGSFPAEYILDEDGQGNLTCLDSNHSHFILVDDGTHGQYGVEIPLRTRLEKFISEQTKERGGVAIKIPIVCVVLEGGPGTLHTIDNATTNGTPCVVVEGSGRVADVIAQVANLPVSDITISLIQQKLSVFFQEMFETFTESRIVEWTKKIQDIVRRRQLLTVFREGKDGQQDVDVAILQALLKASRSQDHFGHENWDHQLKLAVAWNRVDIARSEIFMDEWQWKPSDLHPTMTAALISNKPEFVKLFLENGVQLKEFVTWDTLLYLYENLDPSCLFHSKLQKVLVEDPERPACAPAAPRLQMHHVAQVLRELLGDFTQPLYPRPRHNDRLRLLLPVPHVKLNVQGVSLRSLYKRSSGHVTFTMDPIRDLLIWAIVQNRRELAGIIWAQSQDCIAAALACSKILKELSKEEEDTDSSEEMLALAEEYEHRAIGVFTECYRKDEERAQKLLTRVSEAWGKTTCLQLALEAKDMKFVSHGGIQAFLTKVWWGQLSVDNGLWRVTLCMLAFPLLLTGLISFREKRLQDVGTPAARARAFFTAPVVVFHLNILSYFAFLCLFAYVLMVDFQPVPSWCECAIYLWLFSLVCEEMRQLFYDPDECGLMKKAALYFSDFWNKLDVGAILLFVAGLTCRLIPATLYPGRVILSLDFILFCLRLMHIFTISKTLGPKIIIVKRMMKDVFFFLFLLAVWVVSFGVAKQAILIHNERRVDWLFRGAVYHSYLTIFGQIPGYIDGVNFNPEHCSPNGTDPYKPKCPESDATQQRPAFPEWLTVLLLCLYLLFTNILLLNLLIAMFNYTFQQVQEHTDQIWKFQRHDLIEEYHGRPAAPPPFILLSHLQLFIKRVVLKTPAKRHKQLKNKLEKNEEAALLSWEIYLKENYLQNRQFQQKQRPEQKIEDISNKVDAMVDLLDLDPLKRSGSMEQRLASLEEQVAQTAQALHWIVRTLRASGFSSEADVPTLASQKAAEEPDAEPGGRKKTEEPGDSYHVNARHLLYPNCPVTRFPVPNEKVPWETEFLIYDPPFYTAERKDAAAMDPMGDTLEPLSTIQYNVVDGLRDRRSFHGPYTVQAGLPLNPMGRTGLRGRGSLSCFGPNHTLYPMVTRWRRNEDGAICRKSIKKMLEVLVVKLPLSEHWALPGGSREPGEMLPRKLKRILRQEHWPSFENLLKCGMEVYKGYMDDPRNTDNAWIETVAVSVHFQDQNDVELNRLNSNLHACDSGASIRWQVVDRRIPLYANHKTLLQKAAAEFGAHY

SMILES: O=c1c(O)c(-c2ccccc2Br)oc2cc(O)cc(O)c12 [AM12, 3,5,7‐trihydroxy‐2‐(2‐bromophenyl)‐4H‐chromen‐4‐one]
- pIC50 (human TRPC5 [1]; TRPC5 (Tet+) HEK 293, Gd3+, fura-2, read-out: IC50, inhibition of Gd3+-evoked Ca2+ entry): 6.55
- recovery on washout (human TRPC5 [2]): fast recovery on washout
- inhibition of TRPC1-TRPC5 heteromeric channel current [3]: ~ 20%
- average inhibition of TRPC4 current (TRPC4): ~ 80%
- effect on Ca2+ entry through TRPC3 channels (TRPC3 channels): did not reach statistical significance
- effect on Ca2+ entry through TRPV4 channels (TRPV4 channels [4]): significant stimulatory effect
- effect on TRPM2 channels (TRPM2 channels): no effect
- effect on Ca2+ release evoked by thapsigargin ([5]; 3 μM thapsigargin): no effect
- effect on Ca2+ release evoked by ATP ([5]; 100 μM ATP): no effect
- effect on S1P-evoked Ca2+ entry (human TRPC5 [6]; 5 μM S1P): stimulated rather than inhibited
- effect on LPC-evoked Ca2+ entry (human TRPC5 [6]; 10 μM LPC): enhanced
- effect on S1P and LPC responses in Tet- cells [7]: no effects
- effect on ATP response in the presence of extracellular Ca2+ ([7]; 100 μM ATP): enhanced

SMILES: O=c1cc(-c2ccc(O)cc2)oc2cc(O)cc(O)c12 [Apigenin]
- effect on Gd3+-evoked Ca2+ entry (natural flavonoid screen) (human TRPC5 [1]; 10 μM, 50 μM Gd3+, XRhod-1): stimulatory effect
- effect on TRPC5-mediated whole-cell current (no other activator) (human TRPC5 [8]): stimulate
- effect on GABA-evoked ionic currents [9]: inhibited
- effect on TRPV4 channels (TRPV4 channels [10]): stimulating

SMILES: O=c1c(-c2ccc(O)cc2)coc2cc(O)cc(O)c12 [genistein]
- effect on TRPC5 (TRPC5): stimulated
- effect on 3T3-L1 cell proliferation and differentiation (3T3-L1 cells): inhibited proliferation and subsequent differentiation
